This note sets out measurements from article PMC8347595, “N-Skatyltryptamines—Dual 5-HT6R/D2R Ligands with Antipsychotic and Procognitive Potential” (Molecules, 2021).

Like-named read-outs stand apart in the source and are kept apart here.

The target in series [1] is 5-HT7R (Homo sapiens, UniProt P34969). The series is described as follows: Radioligand binding assay, [3H]-5-CT displacement.
For series [2], the target named is T1, Human Serotonin 5-HT6R (Homo sapiens, UniProt P50406).
T1 construct: host or cells: 1321N1 (frozen recombinant cells)
The series is described as follows: 5-HT6R functional assay, antagonistic mode (cAMP induced by 5-CT, 1321N1 cells). Format: cell-based. The protocol:
(§1) The properties of compounds to inhibit cAMP production induced by a 5-HT6R agonist 5-CT (1000 nM) was evaluated. Compounds were tested in triplicate at eight concentrations (10^−11–10^−4 M). The level of cAMP was measured using frozen recombinant 1321N1 cells expressing the Human Serotonin 5-HT6R (PerkinElmer). Total cAMP was measured using the LANCE cAMP Detection Kit (PerkinElmer), according to the manufacturer’s instructions. For quantification of cAMP levels, 2000 cells/well ([…]) were incubated with a mixture of compounds ([…]) for 30 min at room temperature in a 384-well white opaque microtiter plate. After incubation, the reaction was stopped and cells were lysed by the addition of […] of working solution ([…] ULight-anti-cAMP) for 1 h at room temperature. Time-resolved fluorescence resonance energy transfer (TR-FRET) was detected by an Infinite M1000 Pro (Tecan) using instrument settings from the LANCE cAMP Detection Kit manual. […] The agonistic properties of compounds were determined with an analogous procedure, but without stimulation with 5-CT [10, 36].

Series [3] concerns the target T2, 5-HT1AR (Homo sapiens, UniProt P08908).
T2 sequence (P08908 1-422): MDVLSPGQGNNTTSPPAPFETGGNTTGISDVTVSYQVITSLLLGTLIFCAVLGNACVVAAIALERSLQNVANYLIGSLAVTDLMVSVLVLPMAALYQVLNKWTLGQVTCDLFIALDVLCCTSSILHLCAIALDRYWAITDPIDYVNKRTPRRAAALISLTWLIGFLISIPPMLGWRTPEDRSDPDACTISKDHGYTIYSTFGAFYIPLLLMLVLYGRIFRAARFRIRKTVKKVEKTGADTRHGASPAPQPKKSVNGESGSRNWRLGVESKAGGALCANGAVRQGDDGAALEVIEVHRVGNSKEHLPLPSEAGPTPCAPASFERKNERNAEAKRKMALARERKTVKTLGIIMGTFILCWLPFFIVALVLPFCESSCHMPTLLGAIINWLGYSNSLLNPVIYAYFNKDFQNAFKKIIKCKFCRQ
The series is described as follows: Radioligand binding assay, [3H]-8-OH-DPAT displacement.

In series [4] the test system is Male CD1 mice. The series is described as follows: Novel object recognition (NOR) test, MK-801-induced memory impairment. Format: in vivo. The conditions noted are these: i.p., MK-801 0.3 mg/kg. The method, then:
Animals. Male CD1 mice (Charles River, Germany) weighing 20–25 g at the time of arrival were used in behavioral experiments. Animals were kept under standard laboratory conditions (12:12 light: dark cycle, 22 ± 2 °C) with free access to food and water. Animal welfare has been regularly controlled by a veterinarian and animal welfare committee. After two weeks of acclimatization and handling, the experiments began. Experimental groups consisted of four to 10 animals, depending on the procedure. Drugs were administered intraperitoneally (i.p.) at a volume of 10 mL/kg. Experimental assessments were performed by an observer who was blinded to the treatment conditions. All procedures were conducted in accordance with the European Communities Council Directive of 22 September 2010 (2010/63/EU) and Polish legislation acts concerning animal experimentation and were approved by the II Local Ethics Committee by the Maj Institute of Pharmacology, Polish Academy of Sciences in Krakow (272/2019).
Drugs. MK-801 was purchased from Tocris Bioscience, Bristol, UK. MK-801 was dissolved in 0.9% NaCl. Compounds 15 and 18 were dissolved in 0.9% NaCl. All compounds were administered intraperitoneally (i.p.) in a volume of 10 mL/kg. Vehicle-treated animals received appropriate solvents. Vehicle was administered to animals in any case when drug administration was omitted (e.g., control or MK-801-treated groups).
This procedure was adapted from Nilsson et al. (2007) and performed as described in a previous paper by Cieslik et al. (2018). Habituation, training, and test trials were performed in a black plastic rectangular arena (40 × 30 × 35 cm) illuminated with a light intensity of 335 lux. During the habituation trial (two consecutive days), each animal was allowed to explore the arena for 10 min. The next day, during the training trial (T1), mice were placed in the arena and presented with two identical objects (red glass cylinder; 6.5 cm in diameter and 4.5 cm high) for 5 min. After 1 h, animals were placed back into the arena for a 5 min test trial, during which one of the previously presented familiar objects was replaced with a novel object (a transparent glass elongated sphere-like object with an orange cap; 5.5 cm in diameter and 8.5 cm high). Time spent exploring (i.e., sniffing or touching) the familiar (Tfamiliar) and novel (Tnovel) objects was measured by a trained observer, and the recognition index [%] was calculated for each mouse [(Tnovel − Tfamiliar)/(Tfamiliar + Tnovel)] × 100. Compounds were administered 30 min before MK-801 (0.3 mg/kg), which was administered 30 min before training trial.

Series [5] can be described thus: Metabolic stability, incubation with mouse liver microsomes. In kind it is in vitro ADME. The conditions noted are these: MLMs, 50 µM, 2 h. The protocol:
The murine liver microsomes (MLMs) were purchased from Sigma-Aldrich (St. Louis, MO, USA). To determine metabolic pathways, the tested compounds (50 µM) were incubated with 100 mM Tris-HCl buffer at 37 °C with MLMs (1 mg/mL) and NADPH Regeneration System for 2 h. Reactions were quenched with cold, pure methanol and mixtures were centrifuged 14,000 g for 15 min. The supernatants were analyzed using LCMS. The additional MS ion fragmentation of the product and the substrate were performed to determine the most probable structure of the metabolite.
In general terms: Liver microsomes are a subcellular fraction often used to study metabolism.

For series [6], the system named is HepG2 cell line. Briefly: Hepatotoxicity assay, HepG2 viability. In kind it is cell-based. To be noted: 1 μM, 72 h. The protocol:
To estimate the hepatotoxicity of compounds, the hepatoma HepG2 (ATCC® HB-8065TM) cell line was used according to previously described protocols. The CellTiter 96® AQueous Non-Radioactive Cell Proliferation Assay was obtained from Promega (Madison, WI, USA). The compounds were tested in quadruplicate at four concentrations (1–100 µM) for 72 h.

In series [7] the target is 5-HT6R (Homo sapiens, UniProt P50406). Briefly: Radioligand binding assay, [3H]-LSD displacement.
In series [8] the target is T1, Human Serotonin 5-HT6R. Briefly: 5-HT6R functional assay, agonistic mode (cAMP, 1321N1 cells). In kind it is cell-based. The protocol: as §1

As usually defined, the Ki is the equilibrium dissociation constant of an inhibitor or competing ligand from its target. Low values mean a stronger hold on the target, high ones a looser hold on the target. By Kb is commonly meant the affinity of an antagonist, worked out from how it opposes an agonist. By EC50 is commonly meant the concentration that produces a half-maximal response. A low value points to an effect from little substance.

T1 sequence (P50406 whole entry): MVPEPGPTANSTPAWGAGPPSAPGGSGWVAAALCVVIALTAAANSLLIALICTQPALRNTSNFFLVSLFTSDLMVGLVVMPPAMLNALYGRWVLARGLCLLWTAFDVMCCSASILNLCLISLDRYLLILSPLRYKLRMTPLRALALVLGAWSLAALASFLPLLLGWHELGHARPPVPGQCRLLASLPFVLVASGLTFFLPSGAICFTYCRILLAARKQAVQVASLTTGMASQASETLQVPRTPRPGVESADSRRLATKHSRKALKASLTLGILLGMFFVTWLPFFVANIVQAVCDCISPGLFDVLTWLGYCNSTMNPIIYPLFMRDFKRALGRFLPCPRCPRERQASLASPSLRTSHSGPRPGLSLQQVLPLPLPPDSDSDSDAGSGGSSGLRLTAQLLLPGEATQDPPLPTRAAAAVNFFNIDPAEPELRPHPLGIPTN
Sequence of 5-HT6R (P50406 whole entry): as above
Sequence of 5-HT7R (P34969 1-432): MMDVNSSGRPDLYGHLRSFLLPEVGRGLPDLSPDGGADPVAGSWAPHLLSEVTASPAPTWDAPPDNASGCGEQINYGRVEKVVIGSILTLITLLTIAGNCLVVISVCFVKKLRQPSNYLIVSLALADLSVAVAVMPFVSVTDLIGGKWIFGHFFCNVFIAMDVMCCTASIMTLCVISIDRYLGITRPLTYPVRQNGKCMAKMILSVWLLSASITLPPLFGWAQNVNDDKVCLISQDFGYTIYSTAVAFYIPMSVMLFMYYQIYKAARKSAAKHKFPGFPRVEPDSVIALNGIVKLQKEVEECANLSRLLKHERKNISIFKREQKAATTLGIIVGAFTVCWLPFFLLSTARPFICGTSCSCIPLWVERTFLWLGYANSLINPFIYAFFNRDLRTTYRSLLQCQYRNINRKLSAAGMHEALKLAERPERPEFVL

Turning to `Brc1ccc2c(CNCCc3c[nH]c4ccccc34)c[nH]c2c1` [Compound 15], the inhibition constant Ki in [1] is 4680 nM; in series [3] (pKi 5-HT1A, Table 1), 977 nM; in series [7] (Ki 5-HT6, Figure 8), 102 nM; in series [7] (pKi 5-HT6, Table 1) it was 102 nM. In addition, in series [2], the “5-HT6R function in words (antagonism)” value is reported as “antagonist”. In addition, the Kb in series [2] (antagonistic mode, 5-CT 1000 nM, read-out: 5-HT6 Kb) was found to be 131 nM. Where the note is “5 h, 200 µM, pH 7.4”, the “PAMPA Pe ± SD” value was 2.42 10^−6 cm/s. Besides, the permeability in words entry (PAMPA) is “rather low Pe value but still higher than norfloxacin”. Also, the “reversal of memory impairment induced by MK-801 in NOR test” value in [4] (0.5 mg/kg) and in [4] (1 mg/kg) was “reversed memory impairment” throughout. Also, the “Metabolic Pathway, metabolite M1” value in series [5] was “hydroxylation hydroxylation”. The “Metabolic Pathway, metabolite M2” value in [5] was “hydroxylation hydroxylation”. For the same compound, the “effect on HepG2 proliferation in words” value in series [6] is recorded as “a proliferative effect was observed, but it was not statistically significant”.

For `Brc1cccc2c(CNCCc3c[nH]c4ccccc34)c[nH]c12` [Compound 18], the Ki is 1320 nM in [1]; 302 nM in series [3]; 449 nM in series [7] (Ki 5-HT6, Figure 8); 447 nM in [7] (pKi 5-HT6, Table 1). Further, the “reversal of memory impairment induced by MK-801 in NOR test” value in series [4] (0.1 mg/kg), in [4] (0.5 mg/kg) and in [4] (1 mg/kg) was “reversed memory impairment” in each case. In [8], the “5-HT6R function in words (agonism)” value was “agonist”. In series [8], the midpoint of the response, the EC50, lay at 77 nM. The “Metabolic Pathway, metabolite M1” value in [5] is “hydroxylation hydroxylation”. In addition, in series [5], the “Metabolic Pathway, metabolite M2” value is listed as “hydroxylation hydroxylation”. The “effect on HepG2 proliferation in words” value in series [6] was “a proliferative effect was observed, but it was not statistically significant”.
